Data published in publication PMC9578396, “Intrinsic Antibacterial Activity of Xeruborbactam In Vitro: Assessing Spectrum and Mode of Action” (Antimicrobial Agents and Chemotherapy, 2022).
Where “and” joins values, the source holds several entries; their conditions need not be identical. Equal values may be shown once. Read-outs that look alike come from different tables or passages of the source.

Tests used:
Type in all cases: cell-based
Pseudomonas aeruginosa = test: Broth microdilution MIC (CLSI), Pseudomonas aeruginosa
Method in brief: (§1)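 MICs by CLSI broth microdilution in in-house panels. Strains tested were engineered strains carrying porin and efflux mutation combinations, KPC-producing clinical isolates and derivatives cured of KPC plasmids, and KPC-producing clinical isolates enriched for porin mutations.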

Escherichia coli = test: Broth microdilution MIC (CLSI), Escherichia coli; settings: Escherichia coli
Method in brief: as §1

Streptococcus pneumoniae = test: MIC, Streptococcus pneumoniae
Source text: Bacterial isolates were subjected to broth microdilution susceptibility testing, performed according to Clinical and Laboratory Standards Institute (CLSI) methods ([46]), using panels prepared in-house. Meropenem was purchased from Sandoz, and all other antibiotics were from Sigma-Aldrich. Xeruborbactam was synthesized at Qpex Biopharma, San Diego, CA. Avibactam was purchased from eNovation Chemicals LLC, Bridgewater, NJ, USA; zidebactam was from MedKoo Biosciences, Inc., Morrisville, NC, and nacubactam was from Advanced ChemBlocks, Hayward, CA. Durlobactam was synthesized at Acme Bioscience, Palo Alto, CA, USA.

Klebsiella pneumoniae = test: microbe, parasite or virus in culture; settings: for MIC: Klebsiella pneumoniae
Method in brief: as §1

C[C@@H](O)[C@H]1C(=O)N2C(C(=O)O)=C(S[C@@H]3CN[C@H](C(=O)N(C)C)C3)[C@H](C)[C@H]12 [Meropenem]
0.03 µg/mL: MIC (Escherichia coli) | MIC (Escherichia coli; strain ECM6001, ΔacrB) | MIC (Klebsiella pneumoniae; no-plasmid strain KPM1026a) | MIC (Klebsiella pneumoniae; strain KPM2696, ΔacrB)
4 µg/mL: MIC (Streptococcus pneumoniae; Streptococcus pneumoniae, sp122, read-out: MIC)
0.06 µg/mL: MIC (Pseudomonas aeruginosa; Pseudomonas aeruginosa, strain PAM1106, mexA::Tet) | MIC (Pseudomonas aeruginosa; Pseudomonas aeruginosa, strain PAM1154, oprM::Hg) | MIC (Escherichia coli; strain ECM6502, marR (AcrAB overexpression)) | MIC (Streptococcus pneumoniae; Streptococcus pneumoniae, sp005, read-out: MIC) | MIC (Klebsiella pneumoniae; KPM3532 (TolQ::M189K), alone) | MIC (Klebsiella pneumoniae; KPM3532, TolQ::M189K) | MIC (Klebsiella pneumoniae; KPM3534 (TolQ::S31F), alone) | MIC (Klebsiella pneumoniae; KPM3534, TolQ::S31F) | MIC (Klebsiella pneumoniae; KPM4235, TolQ::IP(183–1844)PR) | MIC (Klebsiella pneumoniae; KPM4236, TolQ::TAA at aa 103) | MIC (Klebsiella pneumoniae; KPM4238, TolQ::S25F) | MIC (Klebsiella pneumoniae; KPM4239, TolQ::S28F) | MIC (Klebsiella pneumoniae; KPM4240, TolQ::S25Y) | MIC (Klebsiella pneumoniae; no-plasmid strain KPM1027) | MIC (Klebsiella pneumoniae; no-plasmid strain KPM2600) | MIC (Klebsiella pneumoniae; strain KPM2600, ΔompK35)
0.125 µg/mL: MIC (Streptococcus pneumoniae; Streptococcus pneumoniae) | MIC (Streptococcus pneumoniae; sp008) | MIC (Streptococcus pneumoniae; sp121) | MIC (Klebsiella pneumoniae; no-plasmid strain KPM2040)
1 µg/mL: MIC (Pseudomonas aeruginosa; Pseudomonas aeruginosa, strain PAM1032, nalB (MexAB-OprM overexpression))
32 µg/mL: MIC (Klebsiella pneumoniae; KPM2601 (KPC-3; ΔompK35), alone) | MIC (Klebsiella pneumoniae; KPM4127 (KPM3532 TolQ::M189K/KPC-3), alone) | MIC (Klebsiella pneumoniae; KPM4128 (KPM3534 TolQ::S31F/KPC-3), alone)
256 µg/mL: MIC (Klebsiella pneumoniae; KPM2631 (KPC-3; ompK36_fs ΔompK35), alone)
> 64 µg/mL: MIC (Klebsiella pneumoniae; KPM4129 (KPM3532 TolQ::M189K/NDM-1), alone) | MIC (Klebsiella pneumoniae; KPM4130 (KPM3534 TolQ::S31F/NDM-1), alone)
≤ 0.03 µg/mL: MIC (Streptococcus pneumoniae; Streptococcus pneumoniae, sp001, read-out: MIC) | MIC (Streptococcus pneumoniae; Streptococcus pneumoniae, sp002, read-out: MIC) | MIC (Streptococcus pneumoniae; Streptococcus pneumoniae, sp003, read-out: MIC)
≤0.06 µg/mL: MIC90 (Klebsiella pneumoniae)
0.25 µg/mL: MIC (Pseudomonas aeruginosa; Pseudomonas aeruginosa) | MIC (Pseudomonas aeruginosa; Pseudomonas aeruginosa, strain PAM1033, nfxB (MexCD-OprJ overexpression)) | MIC (Streptococcus pneumoniae; Streptococcus pneumoniae, sp004, read-out: MIC) | MIC (Streptococcus pneumoniae; Streptococcus pneumoniae, sp006, read-out: MIC) | MIC (Streptococcus pneumoniae; Streptococcus pneumoniae, sp009, read-out: MIC) | MIC (Streptococcus pneumoniae; Streptococcus pneumoniae, sp117, read-out: MIC) | MIC (Streptococcus pneumoniae; Streptococcus pneumoniae, sp118, read-out: MIC) | MIC (Streptococcus pneumoniae; Streptococcus pneumoniae, sp119, read-out: MIC) | MIC (Streptococcus pneumoniae; Streptococcus pneumoniae, sp120, read-out: MIC) | MIC (Streptococcus pneumoniae; Streptococcus pneumoniae, sp123, read-out: MIC) | MIC (Streptococcus pneumoniae; Streptococcus pneumoniae, sp125, read-out: MIC) | MIC (Streptococcus pneumoniae; Streptococcus pneumoniae, sp126, read-out: MIC) | MIC (Klebsiella pneumoniae; no-plasmid strain KPM2613) | MIC (Klebsiella pneumoniae; strain KPM2613, ΔompK35 ompK36_2040)
0.5 µg/mL: MIC (Pseudomonas aeruginosa; PAM1154 (oprM::Hg), xeruborbactam 0 µg/ml) | MIC (Pseudomonas aeruginosa; Pseudomonas aeruginosa, strain PAM1034, nfxC (MexEF-OprN overexpression))
2 µg/mL: MIC (Klebsiella pneumoniae; no-plasmid strain KPM1171)
0.03 µg/mL and 0.08 µM: MIC (Escherichia coli; MG1655) | MIC (Klebsiella pneumoniae; ATCC49816)
0.06 µg/mL and 0.16 µM: MIC (Pseudomonas aeruginosa; Pseudomonas aeruginosa, PAO1)
